Data set [1] concerns the target T1, recombinant BRD4 BD1 (Homo sapiens, UniProt O60885).
T1 construct: for recombinant BRD4 BD1 and BRD4 BD2 proteins
The experiment in a line: Competitive fluorescence-polarization (FP) binding assay, BRD4 BD1.

Data set [2] concerns the target T2, recombinant BRD4 BD2 (Homo sapiens, UniProt O60885).
T2 construct: for recombinant BRD4 BD1 and BRD4 BD2 proteins
The experiment in a line: Competitive fluorescence-polarization (FP) binding assay, BRD4 BD2.

Data set [3] deals with RS4;11. The experiment in a line: Cell growth inhibition, 4-day proliferation assay, RS4;11. The conditions noted are these: Homo sapiens. In kind it is cell-based. Here is the method: The effect of representative Compounds of the Disclosure on cell viability was determined in a 4-day proliferation assay. Cells were maintained in the appropriate culture medium with 100/0 FBS at 37° C. and an atmosphere of 5% CO2. All the cell lines were used within three months of thawing fresh vials.
In general, cells were seeded in 96-well flat bottom (Corning COSTAR, Corning, N.Y., cat #3595) or white opaque cell culture plates (BD Falcon, cat #353296) at a density of 3,000-10,000 cells/well in 75 μl of culture medium. Compounds were serially diluted in the appropriate medium, and 75 μl of the diluted compounds were added to the appropriate wells of the cell plate. After the addition of compounds, the cells were incubated at 37° C. in an atmosphere of 5% CO2 for 4 days. Cell viability was determined using the CellTiter-Glo® Luminescent Cell Viability Assay Kit (Promega, Madison, Wis.) for leukemia cells and WST (2-(2-methoxy-4-nitrophenyl)-3-(4-nitrophenyl)-5-(2,4-disulfophenyl)-2H-tetrazolium, monosodium salt) Cell Counting-8 Kit (Dojindo Molecular Technologies, Inc., Rockville, Md.) for adherent cells according to the manufacturers' instructions.
For WST assay (adherent cells), WST-8 reagent was added to each well at a final concentration of 10% (v/v), and then the plates were incubated at 37° C. for 1-2 hours for color development. The absorbance was measured at 450 nm using a SPECTRAmax PLUS plate reader (Molecular Devices, Sunnyvale, Calif.). The readings were normalized to the DMSO-treated cells and the half maximal inhibitory concentration (IC50) was calculated by nonlinear regression (four parameters sigmoid fitted with variable slope, least squares fit, and no constraint) analysis using the GraphPad Prism 5 software (GraphPad Software, La Jolla, Calif.).
For CellTiter-Glo assay (suspension cells), 100 μl of CellTiter-Glo® Reagent was added to each well, and then the plates were incubated at room temperature for 10-20 minutes. The luminescent signal was measured using a Tecan Infinite M1000 multimode microplate reader (Tecan, Morrisville, N.C.). The readings were normalized to the DMSO-treated cells and the IC50 was calculated by nonlinear regression (four parameters sigmoid fitted with variable slope, least squares fit, and no constraint) analysis using the GraphPad Prism 5 software. See US 2014/0256706.
For a number of representative compounds in Table 5, their IC50 values in cell growth inhibition activity in the RS4;11 and MOLM-13 human leukemia cell lines and the MDA-MB-231 breast cancer cell line were evaluated using the WST-8 assay described in EXAMPLE 7, with the data shown in Table 7.

The subject of data set [4] is MOLM-13. Put plainly: Cell growth inhibition, 4-day proliferation assay, MOLM-13. In kind it is cell-based. The conditions noted are these: Homo sapiens.
The subject of data set [5] is MDA-MB-231. The experiment in a line: Cell growth inhibition, 4-day proliferation assay, MDA-MB-231. The conditions noted are these: Homo sapiens. In kind it is cell-based. The procedure, abridged: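 Cells seeded at 3,000-10,000/well, treated with serially diluted compounds 4 days at 37 °C, 5% CO2. Viability by WST-8 (10% v/v, 1-2 h, A450); readings normalized to DMSO-treated cells, IC50 by four-parameter nonlinear regression.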

In data set [6] the target is BRD2 BD1 (Homo sapiens, UniProt P25440). Put plainly: Competitive FP binding assay, BRD2 BD1. Particulars: Table 8, read-out: IC50 (nM) in FP assays BRD2 BD1. The procedure: (§1) Fluorescence Polarization (FP) competitive binding studies were carried out using a FAM labeled fluorescent probe, see, e.g., Cpd. No. 350 of US 2014/0256706, to determine binding affinities of representative Compounds of the Disclosure for recombinant BRD4 BD1 and BRD4 BD2 proteins. Equilibrium dissociation constants (Kd) values of the fluorescent probe to BRD4 BD1 and BD2 proteins were determined from protein saturation experiments by monitoring the total fluorescence polarization of mixtures composed with the fluorescent probe at a fixed concentration and proteins with increasing concentrations up to full saturation. Serial dilutions of testing proteins were mixed with the fluorescent probe to a final volume of 200 μl in the assay buffer (100 mM phosphate buffer, pH=6.5, 0.01% Triton X-100 (Sigma, 282103) being added right before assays). Final fluorescent probe concentration was 1.5 nM for both proteins. Plates were incubated at room temperature for 30 minutes with gentle shaking to assure equilibrium. FP values in millipolarization units (mP) were measured using the Infinite M-1000 plate reader (Tecan U.S., Research Triangle Park, N.C.) in Microfluor 1 96-well, black, round-bottom plates (Thermo Scientific, Waltham, Mass.) at an excitation wavelength of 485 nm and an emission wavelength of 530 nm. Kd values of the fluorescent probe, which were calculated by fitting the sigmoidal dose-dependent FP increases as a function of protein concentrations using Graphpad Prism 6.0 software (Graphpad Software, San Diego, Calif.), are 5.5 and 3.0 nM to BDR4 BD1 and 2, respectively.
(§2) The IC50 and Ki values of compounds were determined in a competitive binding experiment. See US 2014/0256706. Mixtures of 10 μl of the tested compounds in assay buffer with 40% Ethylene Glycol and 190 μl of preincubated protein/probe complex solution in the assay buffer (100 mM potassium phosphate, pH 6.5, 0.01% Triton X-100) were added into assay plates which were incubated at room temperature for 30 minutes with gentle shaking. Final concentrations of proteins were 10 and 6 nM in assays for BRD4 BD1 and BD2, respectively. Final probe concentration is 1.5 nM in both assays. […] FP values were measured as described above. IC50 values were determined by nonlinear regression fitting of the competition curves. Instead of being calculated from IC50 values as described before. […]
(§3) For several representative compounds in Table 5, their binding affinities to BRD2 BD1 and BD2 proteins, and BRD3 BD1 and BD2 proteins were determined using the Competitive Fluorescence-Polarization (FP) Assays described in Example 6, with the data included in Table 8.

Data set [7] has as its target BRD2 BD2 (Homo sapiens, UniProt P25440). Put plainly: Competitive FP binding assay, BRD2 BD2. The conditions noted are these: Table 8, read-out: IC50 (nM) in FP assays BRD2 BD2. The procedure: as §1, §2, §3
Data set [8] addresses BRD3 BD1 (Homo sapiens, UniProt Q15059). The experiment in a line: Competitive FP binding assay, BRD3 BD1. The conditions noted are these: Table 8, read-out: IC50 (nM) in FP assays BRD3 BD1. Here is the method:
as §1, §2, §3

Data set [9] addresses BRD3 BD2 (Homo sapiens, UniProt Q15059). The experiment in a line: Competitive FP binding assay, BRD3 BD2. Particulars: Table 8, read-out: IC50 (nM) in FP assays BRD3 BD2. Here is the method:
as §1, §2, §3

Data set [10] in a line: Plasma exposure after oral gavage in mice, LC-MS/MS. The format is in vivo. Particulars: mouse, plasma, mice, oral gavage 25 mg/kg; for concentration at 1 h: read-out: Plasma concentration (ng/mL) 1 h; for concentration at 3 h: read-out: Plasma concentration (ng/mL) 3 h; for concentration at 6 h: read-out: Plasma concentration (ng/mL) 6 h. Here is the method:
For a number of representative compounds in Table 5, their plasma exposures with oral administration in mice via oral gavage were determined by LC-MS/MS, with the data shown in Table 9.

[11] abbreviates: competitive FP, Table 6, read-out: IC50 as determinined in FP assays BRD4 BD1.
The mark [12] stands for this setting: competitive FP, Table 6, read-out: IC50 as determinined in FP assays BRD4 BD2.
Where [13] appears, read: RS4-11, WST-8 assay, Table 7, read-out: Cell growth inhibition (IC50 (nM)) RS4;11.
Where [14] appears, read: MOLM-13, WST-8 assay, Table 7, read-out: Cell growth inhibition (IC50 (nM)) MOLM-13.
Where [15] appears, read: RS4-11, 96 h, read-out: Cell IC50 (nM) RS4;11.

Like-named read-outs stand apart in the source and are kept apart here. Bounds are passed on as bounds.

As a reminder, the IC50 is the concentration at which inhibition is half-maximal.

Sequence of BRD2 BD1 (P25440 74-180 limits assumed): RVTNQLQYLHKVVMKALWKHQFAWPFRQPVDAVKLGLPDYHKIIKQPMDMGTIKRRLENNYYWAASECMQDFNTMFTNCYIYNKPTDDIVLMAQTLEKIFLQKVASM
Sequence of BRD3 BD1 (Q15059 34-140 limits assumed): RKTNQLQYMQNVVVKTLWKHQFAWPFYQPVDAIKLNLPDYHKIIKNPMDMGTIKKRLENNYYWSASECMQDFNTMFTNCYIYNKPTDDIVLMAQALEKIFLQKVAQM
Sequence of BRD2 BD2 (P25440 344-453 limits assumed): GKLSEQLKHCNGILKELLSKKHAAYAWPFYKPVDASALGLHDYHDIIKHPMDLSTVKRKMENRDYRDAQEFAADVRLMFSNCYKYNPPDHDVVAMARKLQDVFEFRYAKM
Sequence of BRD3 BD2 (Q15059 306-415 limits assumed): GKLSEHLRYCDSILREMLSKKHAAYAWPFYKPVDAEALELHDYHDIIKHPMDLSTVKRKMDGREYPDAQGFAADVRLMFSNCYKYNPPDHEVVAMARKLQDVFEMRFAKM

Turning to `Cc1nnc(C[C@@H]2N=C(c3ccc(Cl)cc3)c3c(sc(C#CC4CCOCC4)c3C)-n3c(C)nnc32)o1` [Compound 145, (S)-2-((4-(4-chlorophenyl)-3,9-dimethyl-2-((tetrahydro-2H-pyran-4-yl)ethynyl)-6H-thieno[3,2-f][1,2,4]triazolo[4,3-a][1,4]diazepin-6-yl)methyl)-5-methyl-1,3,4-oxadiazole], the IC50 in [1] (setting [11]) turned out to be 16.3 nM; in data set [2] (setting [12]), 47.5 nM; in [3] (setting [13]), 13.3 nM; in [4] (setting [14]), 11.3 nM; in data set [5] (MDA-MB-231, WST-8 assay, Table 7, read-out: Cell growth inhibition (IC50 (nM)) MDA-MB-231), 105 nM; in data set [6], 26 nM. The values for the IC50 in [7], in data set [8] and in [9] were 50.7 nM, 38.6 nM and 161 nM, respectively. Besides, in [10], the concentration at 1 h was found to be 6620 ng/mL. Also, the concentration at 3 h in data set [10] stood at 4880 ng/mL. The concentration at 6 h in data set [10] was found to be 629 ng/mL.
On to `Cc1c(C#CC2CCOCC2)sc2c1C(c1ccc(Cl)cc1)=N[C@@H](CC(=O)N1CCC(C)(O)CC1)c1nnc(C)n1-2` [Compound 157, (S)-2-(4-(4-chlorophenyl)-3,9-dimethyl-2-((tetrahydro-2H-pyran-4-yl)ethynyl)-6H-thieno[3,2-f][1,2,4]triazolo[4,3-a][1,4]diazepin-6-yl)-1-(4-hydroxy-4-methylpiperidin-1-yl)ethan-1-one], for which the IC50 amounted to 55.2 nM in data set [1] (setting [11]); 50.3 nM in data set [2] (setting [12]); 37 nM in data set [3] (setting [13]); 25.4 nM in data set [4] (setting [14]); 39.3 nM in data set [6]; 146 nM in data set [7]. For the same compound, the IC50 in [8] turned out to be 85.1 nM; in data set [9], 120 nM. The concentration at 1 h in data set [10] was 4630 ng/mL. Moreover, the concentration at 3 h in data set [10] was 3760 ng/mL. In addition, in [10], the concentration at 6 h came to 1190 ng/mL.
As for `Cc1c(C#CC2CCOCC2)sc2c1C(c1ccc(Cl)cc1)=N[C@@H](CC(=O)N1CC(C)(O)C1)c1nnc(C)n1-2` [Compound 158, (S)-2-(4-(4-chlorophenyl)-3,9-dimethyl-2-((tetrahydro-2H-pyran-4-yl)ethynyl)-6H-thieno[3,2-f][1,2,4]triazolo[4,3-a][1,4]diazepin-6-yl)-1-(3-hydroxy-3-methylazetidin-1-yl)ethan-1-one], the concentration for half-maximal inhibition (IC50) in [1] (setting [11]) stood at 48.3 nM; in data set [2] (setting [12]) it was 69.1 nM; in [3] (setting [13]), 43 nM; in data set [4] (setting [14]) it was 24.5 nM; in data set [6], 40.2 nM; in data set [7] it was 182 nM. Moreover, the IC50 in data set [8] came to 63.7 nM; in [9], 220 nM. For the same compound, the concentration at 1 h in data set [10] was found to be 3380 ng/mL. Further, in data set [10], the concentration at 3 h is 1810 ng/mL. In data set [10], the concentration at 6 h is 946 ng/mL.
Regarding `Cc1c(C#CC2CCOCC2)sc2c1C(c1ccc(Cl)cc1)=N[C@@H](CC(=O)N1CCC(O)CC1)c1nnc(C)n1-2` [Compound 159, (S)-2-(4-(4-chlorophenyl)-3,9-dimethyl-2-((tetrahydro-2H-pyran-4-yl)ethynyl)-6H-thieno[3,2-f][1,2,4]triazolo[4,3-a][1,4]diazepin-6-yl)-1-(4-hydroxypiperidin-1-yl)ethan-1-one], the IC50 was 36.2 nM in [1] (setting [11]); 47.6 nM in data set [2] (setting [12]); 39.5 nM in data set [3] (setting [13]); 35.4 nM in data set [4] (setting [14]); 34.4 nM in data set [6]; 143 nM in [7]. The IC50 in data set [8] amounted to 76.5 nM; in data set [9], 127 nM. The concentration at 1 h in data set [10] came out at 3460 ng/mL. Moreover, in [10], the concentration at 3 h is 2120 ng/mL. The concentration at 6 h in data set [10] was 1700 ng/mL.
`Cc1c(C#Cc2cnn(C)c2)sc2c1C(c1ccc(Cl)cc1)=NCc1nnc(C)n1-2` [compound 23, 4-(4-chlorophenyl)-3,9-dimethyl-2-((1-methyl-1H-pyrazol-4-yl)ethynyl)-6H-thieno[3,2-f][1,2,4]triazolo[4,3-a][1,4]diazepine]: the IC50 is 14.3 nM in data set [1]; 63.1 nM in [2]; > 100 nM in [3] (setting [15]); > 100 nM in data set [4] (MOLM-13, 96 h, read-out: Cell IC50 (nM) MOLM13).
In the case of `Cc1c(C#Cc2ccc3[nH]ncc3c2)sc2c1C(c1ccc(Cl)cc1)=NCc1nnc(C)n1-2` [compound 41, 2-((1H-indazol-5-yl)ethynyl)-4-(4-chlorophenyl)-3,9-dimethyl-6H-thieno[3,2-f][1,2,4]triazolo[4,3-a][1,4]diazepine], the half-inhibitory concentration (IC50) in data set [3] (setting [15]) worked out at 278 nM; in [5] (MDA-MB-231, 96 h, read-out: Cell IC50 (nM) MDA-MB-231), 680 nM.

Values taken from patent US11046709B2, “Fused 1,4-diazepines as BET bromodomain inhibitors” (THE REGENTS OF THE UNIVERSITY OF MICHIGAN, priority 2017, dated 2021).
